According to US8628752B2, “Methods of identifying HSP90 inhibitors with less ocular toxicity” (Synta Pharmaceuticals Corp., priority 2011, dated 2014):
Values joined by “and” are separate entries in the source; they are usually repeats but may differ in a detail not shown here. Equal entries are not always repeated. “Also recorded” adds a separate entry of the source. Where two headings read alike, the source gives them in different places.

Legend:
[1] = tested on: photoreceptors; conditions: rat, in vivo, iv; for Incidences (#affected/total): male, Sprague-Dawley, 2 days
[2] = tested on: HER2 in BT-474 cells; assay: HER2 degradation assay (anti-HER2 FITC flow cytometry); assay type: cell-based; conditions: 24 h treatment
Method: HER2 positive cells were determined using anti-HER2 conjugated FITC (BD, 540553) according to manufacturer's instruction (BD Biosciences). 0.2×10^6 BT-474 cells were plated in 12-well culture plates in Dulbecco's Modified Eagle's Medium containing 10% fetal bovine serum and 1.5 g/L sodium bicarbonate. Cells were treated with the indicated compounds over a 10-1000 nM concentration range for 24 h. Cells were collected and stained with a FITC-conjugated anti-HER2 antibody for 30 min at room temperature. HER2-positive cells (fluorescence intensity) were determined by flow cytometry (excitation at 495 nm and emission at 529 nm) using a Becton Dickinson LSRII equipped with CellQuest Pro software. […]

[3] = for Elimination from the retina (in words) / Retina/plasma (R/P) ratio (in words): rats; for Retina/plasma (R/P) ratio (in words): 6 h post-dose
[4] = in vivo; conditions: male, Sprague-Dawley, rat, iv; for Kp at 0.5 h / Kp at 6 h: in vivo
[5] = in vivo; conditions: male, Sprague-Dawley, rat, iv
[6] = tested on: photoreceptors; assay: Photoreceptor degeneration/apoptosis in rat eyes (H&E, TUNEL) after i.v. dosing; conditions: for Photoreceptor degeneration (in words) / Ocular toxicity / photoreceptor injury in rats (in words): rats; for Ocular toxicity / photoreceptor injury in rats (in words): short-term studies
[7] = phase I trials, clinical reports, cited from earlier work
[8] = tested on: retina; assay: Ganetespib 3-month toxicology study, ocular histopathology; assay type: in vivo; conditions: SD rats (M + F), max. dose 100 mg/kg, 1 hour i.v. infusion, Days 1 & 15 of four 21-day cycles
[9] = tested on: retina; assay: as above; assay type: in vivo, cynomolgus monkeys; conditions: Monkeys (M + F), max. dose 7 mg/kg, 1 hour i.v. infusion, Days 1 & 15 of four 21-day cycles
[10] = Ocular adverse events in clinical studies with ganetespib; assay type: in vivo, humans
[11] = tested on: retina; conditions: repeated doses; cited from earlier work
[12] = SD rats, all testing doses of the compound, i.v.
[13] = male, Sprague-Dawley, rat, in vivo, iv, 2 days
[14] = male, Sprague-Dawley, rat, in vivo, iv
[15] = male, Sprague-Dawley, rat, in vivo, iv, 0.5 h
[16] = male, Sprague-Dawley, rat, in vivo, iv, 6 h
[17] = SD rats, i.v., between 0.5 and 6 h post-dose
[18] = SD rats, i.v., Day 2, 0.5 h, mg/kg: AUY922 10, 17-DMAG 20, Compound 1 50, 17-AAG 80
[19] = SD rats, i.v., Day 2, 6 h, mg/kg: AUY922 10, 17-DMAG 20, Compound 1 50, 17-AAG 80
[20] = SD rats, 8, 20, 60, 100/80 mg/kg/d x2, i.v.

CC(C)c1cc(C(=O)N2Cc3ccc(CN4CCN(C)CC4)cc3C2)c(O)cc1O [AT-13387]
Incidences (#affected/total) ([1]; 3 mg/kg/day): 6/6
Incidences (#affected/total) ([1]; 30 mg/kg/day): 0/3
Incidences (#affected/total) ([1]; 60 mg/kg/day): 2/3
Mortality (in-house study) [12]: 0/9
Other findings (in-house study) [13]: ↓ Body weight gain

CCNC(=O)c1noc(-c2cc(C(C)C)c(O)cc2O)c1-c1ccc(CN2CCOCC2)cc1 [AUY-922]
IC50 [2]: < 30 nM
IC50 ([2]; Homo sapiens, BT-474, 24 h): 30 nM
Incidences (#affected/total) ([1]; 3 mg/kg/day): 0/3
Incidences (#affected/total) ([1]; 60 mg/kg/day): 3/3
Ocular toxicity / photoreceptor injury in rats (in words) [1]: most severe ocular effects
TUNEL [1]: +-++
Toxicity: mortality (SD rats, 3-60 mg/kg i.v., in 2-3 days post-dose): No mortality
Mortality (in-house study) [12]: 0/12
Other findings (in-house study) [13]: tail edema
Other findings (in-house study) (rat, in vivo, iv): ↓ Body weight gain)
Retina % remain at 6 h of drug present at 0.5 h [3, 14]: (53.5) %
Retina %↓ 0.5-6 h (drug eliminated from retina) [3, 14]: 46.5%
Plasma concentration [3, 15]: 1120 nM
Retina concentration [3, 15]: 4.75 µM
Plasma concentration [3, 16]: 15.4 nM
Retina concentration [3, 16]: 2.54 µM
Kp at 0.5 h [4]: 4.24
Kp at 6 h [4]: 165

CC(C)c1cc(-c2nnc(S)n2-c2ccc3c(ccn3C)c2)c(O)cc1O [Compound 1, 4-isopropyl-6-(5-mercapto-4-(1-methyl-1H-indol-5-yl)-4H-1,2,4-triazol-3-yl)benzene-1,3-diol]
IC50 ([2]; Homo sapiens, BT-474, 24 h): 60 nM
Mortality (in-house study) [13]: 0/15
Other findings (in-house study) (rat, in vivo, 100 mg/kg): (ECG change
Retina %↓ 0.5-6 h (drug eliminated from retina) [3, 17]: 78.5%
Retina %↓ 0.5-6 h (drug eliminated from retina) ([3]; SD rats, i.v., between 0.5 and 6 h post-dose, listed as compound 1): 79%
MTD [5]: 100 mg/kg
concentration at 0.5 h ([4]; cerebrospinal fluid): 19.4 nM
concentration at 0.5 h ([4]; plasma): 19500 nM
concentration at 6 h ([4]; plasma): 104 nM
concentration at 0.5 h ([4]; retina): 10400 nM
concentration at 6 h ([4]; retina): 2240 nM
Incidences (#affected/total) ([6]; SD rats, 10 mg/kg/d x2, i.v.): 0/3
Severity (TUNEL + area & density) ([6]; SD rats, 10 mg/kg/d x2, i.v.): (−) ((−) ≦ 20 cells/section)
Incidences (#affected/total) ([6]; SD rats, 20 mg/kg/d x2, i.v.): 0/3
Severity (TUNEL + area & density) ([6]; SD rats, 20 mg/kg/d x2, i.v.): (−) ((−) ≦ 20 cells/section)
Incidences (#affected/total) ([6]; SD rats, 30 mg/kg/d x2, i.v.): 0/3
Severity (TUNEL + area & density) ([6]; SD rats, 30 mg/kg/d x2, i.v.): (−) (1/3±, 22 ((−) ≦ 20 cells/section)
Photoreceptor degeneration/apoptosis ([6]; SD rats, 50 mg/kg i.v.): (±)
Incidences (#affected/total) ([6]; SD rats, 50 mg/kg/d x2, i.v.): 3/3
Severity (TUNEL + area & density) ([6]; SD rats, 50 mg/kg/d x2, i.v.): (±) ((±) 21-30 cells/section)
Incidences (#affected/total) ([6]; SD rats, 100 mg/kg/d x2, i.v.): 3/3
Photoreceptor degeneration/apoptosis ([6]; SD rats, 10, 20, 30 mg/kg i.v.): (−) ((−) ≦20 cells/section)
Photoreceptor degeneration (in words) ([6]; doses active in animal tumor models): Photoreceptor degeneration was not observed
Photoreceptor degeneration (in words) ([6]; higher dose(s)): only minimal degeneration; also recorded: only minimal-mild changes
Ocular toxicity / photoreceptor injury in rats (in words) ([6]; i.v.): Mild or no ocular toxicity

C=CCNC1=C2C[C@@H](C)C[C@H](OC)[C@H](O)[C@@H](C)/C=C(\C)[C@H](OC(N)=O)[C@@H](OC)/C=C\C=C(/C)C(=O)NC(=CC1=O)C2=O [Compound 17-AAG]
IC50 [2]: 100 to 150 nM
Mortality (in-house study) (SD rats, 100 mg/kg in 5 min): 1/3; 100 mg/kg in 5 min,
Mortality (in-house study) (SD rats, 120 mg/kg in 5 min): 1/1: 120 mg/kg in 5 min.
Toxicity: Mortality (dose) (SD rats, i.v.): 100 mg/kg
CSF concentration [3, 18]: 0.434 µM
Plasma concentration [3, 18]: 26500 nM
R/P ratio (retina/plasma) [3, 18]: 1.70
Retina concentration [3, 18]: 45.1 µM
CSF concentration [3, 19]: 0.00433 µM
Plasma concentration [3, 19]: 262 nM
R/P ratio (retina/plasma) [3, 19]: 9.58
Retina concentration [3, 19]: 2.51 µM
Retina % remain at 6 h of drug present at 0.5 h [3, 17]: (5.6) %
Retina %↓ 0.5-6 h (drug eliminated from retina) [3, 17]: 94% and 94.4%
Elimination from the retina (in words) [3]: more rapidly eliminated from the retina
Retina/plasma (R/P) ratio (in words) [3]: lower R/P ratios; also recorded: low R/P ratio
Visual adverse effects in clinical trials / clinical subjects [7]: absence of clinically-reported visual changes
Photoreceptor degeneration/apoptosis ([6]; SD rats, 8, 20, 60 mg/kg i.v.): (−) ((−) ≦20 cells/section)
Incidences (#affected/total) [6, 20]: 0/10
Severity (TUNEL + area & density) [6, 20]: (−) ((−) ≦ 20 cells/section)
Photoreceptor degeneration/apoptosis ([6]; SD rats, 80 (100) mg/kg i.v.): (−) ((−) ≦20 cells/section)
TUNEL ([6]; SD rats, i.v., mg/kg: AUY922 10, 17-DMAG 20, Compound 1 50, 17-AAG 80): (−) ((−) ≦ 20 cells/section)
Ocular toxicity / photoreceptor injury in rats (in words) ([6]; i.v.): Mild or no ocular toxicity; also recorded: absence of ocular effects; also recorded: did not produce detectable photoreceptor injury; also recorded: did not induce ocular toxicity in rats

CO[C@H]1/C=C\C=C(/C)C(=O)NC2=CC(=O)C(NCCN(C)C)=C(C[C@@H](C)C[C@H](OC)[C@H](O)[C@@H](C)/C=C(\C)[C@@H]1OC(N)=O)C2=O [Compound 17-DMAG]
IC50 ([2]; Homo sapiens): 60 nM
Mortality (in-house study) (SD rats, 25 mg/kg/d x3, 72 hrs): 3/3 @ 25
Toxicity: Mortality (dose) (SD rats, i.v., x 3 days): 25 mg/kg/dx
CSF concentration [3, 18]: 0.0799 µM
Plasma concentration [3, 18]: 4710 nM
Retina concentration [3, 18]: 32.0 µM
CSF concentration [3, 19]: 0.00376 µM
Plasma concentration [3, 19]: 317 nM
Retina concentration [3, 19]: 16.2 µM
Retina %↓ 0.5-6 h (drug eliminated from retina) [3, 17]: 49.4%
Elimination from the retina (in words) [3]: longer retention time; also recorded: slow elimination rate
Retina/plasma (R/P) ratio (in words) [3]: high retina/plasma (R/P) ratio
Visual adverse effects in clinical trials / clinical subjects ([7]; listed as alvespimycin): Visual symptoms, including blurred vision
Kp at 0.5 h [4]: 6.79
Kp at 6 h [4]: 51.1
Incidences (#affected/total) ([6]; SD rats, 10 mg/kg/d x2, i.v.): 3/3
Incidences (#affected/total) ([6]; SD rats, 20, 25 mg/kg/d x2, i.v.): 6/6
Ocular toxicity / photoreceptor injury in rats (in words) ([6]; i.v.): marked photoreceptor cell death; also recorded: produced ocular toxicity

CC(C)c1cc(-c2n[nH]c(=O)n2-c2ccc3c(ccn3C)c2)c(O)cc1O [Ganetespib, 3-(2,4-dihydroxy-5-isopropyl-phenyl)-4-(1-methyl-indol-5-yl)-5-hydroxy-[1,2,4]triazole]
IC50 ([2]; Homo sapiens, BT-474, 24 h): 30 nM
Ocular histopathology evaluation [8]: No changes
Ocular histopathology evaluation [9]: No changes
Severity of ocular toxicities in clinical studies (in words) ([10]; clinical studies with ganetespib): absence of severe common ocular toxicities
Chromatopsia, all adverse events, Grade 1 ([10]; n = 390, number (%)): 1 (<1%)
Chromatopsia, related adverse events, Grade 1 ([10]; n = 390, number (%)): 1 (<1%)
Difficulty with night vision, all adverse events, Grade 1 ([10]; n = 390, number (%)): 1 (<1%)
Vision blurred, all adverse events, Grade 1 ([10]; n = 390, number (%)): 11 (3%)
Vision blurred, all adverse events, Grade 2 ([10]; n = 390, number (%)): 2 (<1%)
Vision blurred, related adverse events, Grade 1 ([10]; n = 390, number (%)): 4 (1%)
Visual acuity reduced, all adverse events, Grade 1 ([10]; n = 390, number (%)): 2 (<1%)
Visual acuity reduced, related adverse events, Grade 1 ([10]; n = 390, number (%)): 1 (<1%)
Visual impairment, all adverse events, Grade 1 ([10]; n = 390, number (%)): 5 (1%)
Visual impairment, related adverse events, Grade 1 ([10]; n = 390, number (%)): 2 (<1%)
Toxicity: exposure compared with human dose ([3]; SD rats, 20 mg/kg i.v., Cmax & AUCt > human dose): Cmax & AUCt >
Elimination from the retina (in words) [3]: more rapidly eliminated from the retina
Retina/plasma (R/P) ratio (in words) [3]: lower R/P ratios
Photoreceptor degeneration/apoptosis ([6]; SD rats, 20 mg/kg i.v.): (−) ((−) ≦20 cells/section)
Ocular toxicity / photoreceptor injury in rats (in words) ([6]; i.v.): absence of ocular effects; also recorded: did not induce ocular toxicity

CC1(C)CC(=O)c2c(C(F)(F)F)nn(-c3ccc(C(N)=O)c(N[C@H]4CC[C@H](OC(=O)CN)CC4)c3)c2C1 [PF-04929113]
Retinal injury in dogs [11]: photoreceptor degeneration and/or cell death
